Molecular target: T1, R2loxI (R2-like ligand-binding oxidase, R2lox) (Geobacillus kaustophilus, UniProt Q5KW80, A171F)
T1 construct: gene GK2771; full-length, N-terminal hexahistidine tag, pET-46 Ek/LIC, E. coli BL21(DE3), purified metal-free
Assay: X-ray crystallography
Conditions: oxidized resting state, Mn/Fe-soaked crystal; ligand co-purified, further up in the tunnel, not at the metals; modelled as C8 acid from partial density, true identity and chain length uncertain

T1 sequence (Q5KW80 entry or part of it A171F): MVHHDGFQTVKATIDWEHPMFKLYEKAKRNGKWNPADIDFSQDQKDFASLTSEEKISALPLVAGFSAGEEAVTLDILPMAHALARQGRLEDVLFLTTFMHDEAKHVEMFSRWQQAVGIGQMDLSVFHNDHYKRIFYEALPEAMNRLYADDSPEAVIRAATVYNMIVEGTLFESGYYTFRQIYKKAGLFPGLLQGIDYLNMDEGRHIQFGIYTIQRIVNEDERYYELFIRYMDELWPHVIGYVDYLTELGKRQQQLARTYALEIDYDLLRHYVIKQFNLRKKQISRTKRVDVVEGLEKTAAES

CCCCCCCC(=O)O [caprylic (C8) acid]
X-ray crystallography: could only reasonably be modeled (as caprylic (C8) acid) in the oxidized state

Source: PMC6399176, “Assembly of a heterodinuclear Mn/Fe cofactor is coupled to tyrosine–valine ether cross-link formation in the R2-like ligand-binding oxidase” (Journal of Biological Inorganic Chemistry, 2019)
